Drawing on patent US12247032B2, “Substituted pyrazolo[1,5-a]pyrimidines as inhibitors of JAK kinases” (Genentech, Inc., priority 2019, dated 2025), this text covers Ki and IC50 for one compound.

Test [1] deals with T1, recombinant human JAK1 kinase domain protein (Residues 854-1154) (Homo sapiens, UniProt P23458).
T1 construct: human JAK1 kinase domain protein (Residues 854-1154); purchased Proteros Biostructures GmbH (Martinsried, Germany); host or cells: insect cells
As to the kind of experiment: JAK1 biochemical assay (microfluidic mobility shift, peptide phosphorylation). Conditions: 25 μM ATP, 1 nM total JAK1; Ki calculated from Ki app (tight-binding, competitive); read-out: Biochem JAK1 Ki. In short, it runs like this:
(§1)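 Insect-cell-expressed human JAK1 (1 nM, residues 854-1154) or JAK2 (0.2 nM, residues 812-1132) phosphorylating 1.5 μM 5-FAM peptide Y-1B with 25 μM ATP, pH 7.2 HEPES, 30 min at 22-23 °C; twelve concentrations up to 1000 nM in duplicate. Mobility-shift % conversion fitted to tight-binding quadratic for Ki^app.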

Test [2] addresses T2, Recombinant human JAK2 kinase domain protein (Residues 812-1132) (Homo sapiens, UniProt O60674).
T2 construct: human JAK2 kinase domain protein (Residues 812-1132); made in house; host or cells: insect cells
The experiment in a line: JAK2 biochemical assay (microfluidic mobility shift, peptide phosphorylation). Conditions: 25 μM ATP, 0.2 nM total JAK2; Ki calculated from Ki app (tight-binding, competitive); read-out: Biochem JAK2 Ki. In short, it runs like this:
as §1

Test [3] concerns JAK1 (IL-13-stimulated STAT6 phosphorylation in BEAS-2B cells). The experiment in a line: P-STAT6 BEAS-2B+IL-13 cell assay. In kind it is cell-based, human. Conditions: Homo sapiens, BEAS-2B, 1 h, 1 hour compound, IL-13 15 minutes, IC50 by four-parameter fit, read-out: Cellular JAK1 PSTAT6 BEAS2B + IL13. In short, it runs like this: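 BEAS-2B human bronchial epithelial cells preincubated 1 h at 37 °C with compound, then stimulated with human recombinant IL-13 for 15 min. Phospho-STAT6 (Tyr641) in lysates measured by MSD electrochemiluminescence immunoassay; IC50 from a four-parameter logistic fit of percent of control.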

T1 sequence (P23458 854-1154): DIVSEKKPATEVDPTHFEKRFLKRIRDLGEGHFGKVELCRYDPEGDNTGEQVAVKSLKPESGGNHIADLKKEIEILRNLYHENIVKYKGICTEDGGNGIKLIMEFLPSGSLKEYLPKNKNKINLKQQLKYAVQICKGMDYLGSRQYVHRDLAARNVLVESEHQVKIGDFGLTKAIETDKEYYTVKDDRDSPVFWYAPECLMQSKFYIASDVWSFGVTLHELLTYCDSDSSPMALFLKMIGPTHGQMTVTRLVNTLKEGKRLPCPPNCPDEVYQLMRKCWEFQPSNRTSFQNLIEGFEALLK
T2 sequence (O60674 812-1132): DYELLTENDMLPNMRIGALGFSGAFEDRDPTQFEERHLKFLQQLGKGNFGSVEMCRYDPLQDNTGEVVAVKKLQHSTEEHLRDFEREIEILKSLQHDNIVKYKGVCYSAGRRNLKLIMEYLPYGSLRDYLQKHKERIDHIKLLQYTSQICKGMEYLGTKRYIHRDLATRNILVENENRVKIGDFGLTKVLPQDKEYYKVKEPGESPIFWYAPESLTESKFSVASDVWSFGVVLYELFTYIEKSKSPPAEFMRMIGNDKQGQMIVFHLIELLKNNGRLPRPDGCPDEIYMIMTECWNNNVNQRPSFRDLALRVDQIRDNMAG

`CN(C)C1(CCN2CC(n3nnc(Cn4cc(NC(=O)c5cnn6cccnc56)c(-c5cc(OC(F)F)ccc5OC(F)F)n4)n3)C2)CC1` [Example 80, N-[3-[2,5-bis(difluoromethoxy)phenyl]-1-[[2-[1-[2-[1-(dimethylamino)cyclopropyl]ethyl]azetidin-3-yl]tetrazol-5-yl]methyl]pyrazol-4-yl]pyrazolo[1,5-a]pyrimidine-3-carboxamide; formic acid]: the Ki in test [1] was 0.46 nM; in test [2] it was 0.41 nM. Besides, the IC50 in test [3] turned out to be 40 nM.
